Test results published in patent publication US4075409A, “Benzophenone derivatives” (Cassella Farbwerke Mainkur Aktiengesellschaft, priority 1973, dated 1978).
Where a name gives a salt, the structure may show the parent alone.

Assays:
[1] = LD50 mice intraperitoneally; conditions: mouse, in vivo, ip, benzophenones as hydrochlorides
Description: (§1) The benzophenone derivatives were tested in the form of their hydrochlorides.

albino mice = test: climbing test, central depressant (sedative) action on albino mice; type: in vivo; conditions: Mus musculus, po, read-out: Central depressant action in % (percentage of animals which no longer embark on the climbing work); for responders at 8 mg/kg: 8.0 mg/kg orally
Description: The pharmacological examination of the central depressant (sedative) action was carried out on albino mice with the aid of the climbing test described by P. K. KNEIP: Arch. int. pharmacodyn 126, 238 (1960) and R. DOMENJOZ and W. THEOBALD: Arch. int. pharmacodyn 120, 450 (1959).
In the final column of the table, the percentage of the experimental animals which no longer embark on the climbing work, which is normally readily undertaken, is given under the heading "Central depressant action in %".
as §1

CC(Cc1ccccc1)NCC(=O)N(C)c1ccc([N+](=O)[O-])cc1C(=O)c1ccccc1 (racemic) [DL-2-(5-Phenyl-N-methyl-4-methyl-3-aza-pentanamido)-5-nitrobenzophenone hydrochloride]
LD50 [1]: 44 mg/kg | responders at 8 mg/kg (albino mice; as hydrochloride): 50%

CC(Cc1ccccc1)NCC(=O)N(C)c1ccc(Cl)cc1C(=O)c1ccccc1Cl (racemic) [DL-2-(5-phenyl-N-methyl-4-methyl-3-aza-pentanamido)-2',5-dichlorobenzophenone hydrochloride]
LD50 [1]: 24 mg/kg | responders at 8 mg/kg (albino mice; as hydrochloride): 70%

CC(Cc1ccccc1)NCC(=O)N(C)c1ccc(Cl)cc1C(=O)c1ccccc1 (racemic) [DL-2-(5-phenyl-N-methyl-4-methyl-3-aza-pentanamido)-5-chlorobenzophenone hydrochloride]
LD50 [1]: 240 mg/kg | responders at 8 mg/kg (albino mice; as hydrochloride): 40%

CCOC(=O)NCC(=O)N(C)c1ccc([N+](=O)[O-])cc1C(=O)c1ccccc1 [2-(3-Ethoxycarbonyl)-N-methyl-3-aza-propanamido)-5-nitro-benzophenone]
LD50 [1]: 500 mg/kg | responders at 10 mg/kg (albino mice; 10.0 mg/kg orally, as hydrochloride): 70%

CCOC(=O)NCC(=O)N(C)c1ccc(Cl)cc1C(=O)c1ccccc1Cl [2-(3-Ethoxycarbonyl-N-methyl-3-aza-propanamido)-2',5-dichlorobenzophenone]
LD50 [1]: 240 mg/kg | responders at 8 mg/kg (albino mice; as hydrochloride): 90%

CN(CC(=O)Nc1ccc(Cl)cc1C(=O)c1ccccc1)C(=S)Nc1ccccc1 [2-(3-Phenylaminothiocarbonyl-3-aza-3-methyl-propanamido)-5-chlorobenzophenone]
LD50 [1]: > 1000 mg/kg | responders at 8 mg/kg (albino mice; as hydrochloride): 50%

CCOC(=O)NCC(=O)N(C)c1ccc(Cl)cc1C(=O)c1ccccc1.Cl [2-(3-ethoxycarbonyl-N-methyl-3-aza-propanamido)-5-chlorobenzophenone hydrochloride]
LD50 [1]: 270 mg/kg | responders at 4 mg/kg (albino mice; 4.0 mg/kg orally, as hydrochloride): 30%

CCCCNC(=O)CCN(CCCC)CC(=O)N(C)c1ccc([N+](=O)[O-])cc1C(=O)c1ccccc1 [2-(5-n-Butylaminocarbonyl-N-methyl-3-n-butyl-3-aza-pentanamido)-5-nitro-benzophenone]
LD50 [1]: 500 mg/kg | responders at 8 mg/kg (albino mice; as hydrochloride): 50%

CCCC(C)(COC(N)=O)COC(N)=O [Meprobamate, reference compound]
responders at 70 mg/kg (albino mice; 70 mg/kg orally, comparison preparation): 50%
